Tested on: Plasmodium berghei
Assay: Luciferase/luciferin-expressing antifolate-resistant parasites were used to infect a culture of HepG2 cells that were pre-incubated with compounds. Infected hepatocytes emit light due to the luciferase reaction. Assay results are presented as the percent inhibition of light emission compared to control. […]
Assay type: functional
Details: sporozoite; for IC90: read-out: LUCIFERASE INFECTION ASSAY - IC90
[1] = read-out: LUCIFERASE INFECTION ASSAY - IC50

| Compound | IC90 | IC50 [1] | other results |
| --- | --- | --- | --- |
| COc1ccccc1C(=O)Nc1nonc1-c1ccc2c(c1)CCCC2 | > 9.45 µM | – | IC50 (PBLUC_HILL_SLOPE 13.6, PBLUC_R_SQUARED 0.311, read-out: LUCIFERASE INFECTION ASSAY - IC50): 9.15 µM |
| CCN1CCN(c2ccc(S(=O)(=O)N3CCCCC3)cc2NC(=O)COc2ccc(Cl)c(C)c2)CC1 | > 10 µM | 9.01 µM | – |
| CC(C)Cn1c(SC2CCOC2=O)nc2cc(Cl)ccc2c1=O (stereo unspecified) | > 10 µM | > 10 µM | – |
| CCc1c(C)[nH]c2c(-c3ccc(Cl)cc3)cnn2c1=O | 11 µM | 5.93 µM | – |
| COC(=O)c1ccc(/C=C/C(=O)c2ccccc2F)cc1 | > 10 µM | – | IC50 (HEPG2TOX_HILL_SLOPE 28.5, HEPG2TOX_R_SQUARED 0.619, read-out: LUCIFERASE INFECTION ASSAY - IC50): > 10 µM |
| CC(C)C(N)c1csc(NC(=O)c2cc(C(C)(C)C)nn2Cc2ccccc2)n1 (stereo unspecified) | 3.46 µM | – | IC50 (PBLUC_HILL_SLOPE 594, PBLUC_R_SQUARED 0.291, read-out: LUCIFERASE INFECTION ASSAY - IC50): 3.45 µM |
| Cc1cc(NC(=O)c2cccc(S(=O)(=O)N3c4ccccc4CC3C)c2)no1 (stereo unspecified) | 1.24 µM | – | IC50 (PBLUC_HILL_SLOPE 18.4, PBLUC_R_SQUARED 0.605, read-out: LUCIFERASE INFECTION ASSAY - IC50): 1.1 µM |
| Cc1cccc2c(=O)n(CC(=O)NCc3ccc(C(=O)N4CCCCC4)cc3)cnc12 | 3.14 µM | – | IC50 (HEPG2TOX_HILL_SLOPE 1.92, HEPG2TOX_R_SQUARED 0.972, PBLUC_HILL_SLOPE 11.2, PBLUC_R_SQUARED 0.559, read-out: LUCIFERASE INFECTION ASSAY - IC50): 2.58 µM |
| COC(=O)c1cc2c(N)c(C(=O)c3ccc(Cl)cc3)sc2nc1C(OC)OC | > 7.84 µM | > 7.84 µM | – |
| O=C(c1c[nH]c2ccccc12)C(NCc1ccc(F)cc1)c1ccccc1 (stereo unspecified) | > 10 µM | > 10 µM | – |
| CCC(C)NC(=O)c1c(NC(=O)C2CCCC2)nc2ccc(C)cn12 (stereo unspecified) | > 9.64 µM | – | IC50 (FFLUC_HILL_SLOPE 1.17, FFLUC_R_SQUARED 0.173, read-out: LUCIFERASE INFECTION ASSAY - IC50): > 9.64 µM |
| CCCCNS(=O)(=O)c1ccc2nc(SCc3cccc(OC)c3)[nH]c2c1 | > 10 µM | > 10 µM | – |
| Cc1ccc(C(C)C)c(OCc2ccc(C(=O)N/N=C/c3cc(C)n(Cc4ccco4)c3C)cc2)c1 | > 10 µM | > 10 µM | – |
| c1csc(-c2cnc3sc(NCc4ccncc4)nn23)c1 | > 10.5 µM | > 10.5 µM | – |
| C/C(=N\OC(=O)Nc1ccccc1)c1sc2nc(C(F)(F)F)nn2c1C | > 8.61 µM | > 8.61 µM | – |
| CC(C)(C)c1ccc(/C=C/C(=O)NCc2ccc(NC(=O)C3CC3)cc2)cc1 | 6.63 µM | 2.38 µM | – |
| Cc1cc(C(=O)COc2cccnc2[N+](=O)[O-])c(C)n1-c1ccc2c(c1)OCO2 | > 10 µM | – | IC50 (PBLUC_HILL_SLOPE 1.7, PBLUC_R_SQUARED 0.197, read-out: LUCIFERASE INFECTION ASSAY - IC50): 8.75 µM |
| CCC1CCc2sc(C(=O)NN)cc2C1 (stereo unspecified) | > 10 µM | > 10 µM | – |
| CCc1c(C#N)c(SCC(=O)c2cc(C)n(-c3ccccc3)c2C)nc2c1C(=O)CC(C)(C)C2 | > 10 µM | > 10 µM | – |
| Cc1ccccc1NC(=O)Nc1scc(S(=O)(=O)C(C)C)c1Cl | > 8.85 µM | > 8.85 µM | – |
| Cn1cc(-c2cnc3cnc(-c4cccc(Cl)c4)cn23)cn1 | > 10.7 µM | > 10.7 µM | – |
| COc1ccc(-c2nc3c(c(=O)[nH]c(=O)n3Cc3ccccc3)n2Cc2ccccc2)cc1 | > 10 µM | – | IC50 (HEPG2TOX_HILL_SLOPE 7.19, HEPG2TOX_R_SQUARED 0.823, PBLUC_HILL_SLOPE 10.3, PBLUC_R_SQUARED 0.181, read-out: LUCIFERASE INFECTION ASSAY - IC50): 8.99 µM |
| O=C(Nc1nc2ccc(OC(F)(F)F)cc2s1)c1cnccn1 | 3.41 µM | – | IC50 (FFLUC_HILL_SLOPE 1.04, FFLUC_R_SQUARED 0.266, PBLUC_HILL_SLOPE 101, PBLUC_R_SQUARED 0.2, read-out: LUCIFERASE INFECTION ASSAY - IC50): 3.33 µM |
| CCN(CC)S(=O)(=O)c1cc(C)c(C)c(NC(=O)c2cc(C3CC3)nc3onc(C)c23)c1 | 9.64 µM | – | IC50 (PBLUC_HILL_SLOPE 5.13, PBLUC_R_SQUARED 0.485, read-out: LUCIFERASE INFECTION ASSAY - IC50): 6.28 µM |

| Compound | IC90 | IC50 [1] | other results |
| --- | --- | --- | --- |
| CCCCNC(=O)c1c(NC(=O)c2ccccc2C)nc2ccc(C)cn12 | > 9.05 µM | 6.48 µM | – |
| CCc1ccc(-c2nnc(SC(C)C(=O)NC3CCCCC3)[nH]2)cc1 (stereo unspecified) | > 10 µM | – | IC50 (HEPG2TOX_HILL_SLOPE 1.62, HEPG2TOX_R_SQUARED 0.795, read-out: LUCIFERASE INFECTION ASSAY - IC50): > 10 µM |
| COc1ccc(O)c(C(=O)c2cc(Cl)c3nc4ccccc4c(=O)n3c2)c1 | 0.494 µM | – | IC50 (PBLUC_HILL_SLOPE 1.52, PBLUC_R_SQUARED 0.671, read-out: LUCIFERASE INFECTION ASSAY - IC50): 0.117 µM |
| Cc1ccc(C)c(-n2cc(-c3ccc(Cl)cc3)nc2SCC(=O)c2ccc(Cl)c(Cl)c2)c1 | > 10 µM | – | IC50 (FFLUC_HILL_SLOPE 12.4, FFLUC_R_SQUARED 0.889, HEPG2TOX_HILL_SLOPE 8.6, HEPG2TOX_R_SQUARED 0.032, read-out: LUCIFERASE INFECTION ASSAY - IC50): > 10 µM |
| CC(C)(C)c1cc(C(=O)Nc2ccccc2)n(Cc2ccc(Cl)cc2Cl)n1 | > 8.2 µM | – | IC50 (PBLUC_HILL_SLOPE 3.9, PBLUC_R_SQUARED 0.166, read-out: LUCIFERASE INFECTION ASSAY - IC50): 5.99 µM |
| CN1CCN(/N=C/c2c(-c3ccccc3)n(-c3ccccc3)c3ccccc23)CC1 | > 10 µM | – | IC50 (PBLUC_HILL_SLOPE 15.1, PBLUC_R_SQUARED 0.218, read-out: LUCIFERASE INFECTION ASSAY - IC50): 9.13 µM |
| Cc1cc(=O)oc2cc(OCc3ccc(C(=O)Nc4nc5ccccc5[nH]4)cc3)ccc12 | > 10 µM | – | IC50 (PBLUC_HILL_SLOPE 0.6, PBLUC_R_SQUARED 0.47, read-out: LUCIFERASE INFECTION ASSAY - IC50): 3.19 µM |
| CC(=O)c1c(C)[nH]c(C(=O)C(C)Sc2nc3ccccc3o2)c1C (stereo unspecified) | > 10 µM | – | IC50 (HEPG2TOX_HILL_SLOPE 2.15, HEPG2TOX_R_SQUARED 0.56, PBLUC_HILL_SLOPE 10.4, PBLUC_R_SQUARED 0.465, read-out: LUCIFERASE INFECTION ASSAY - IC50): 8.44 µM |
| CN(CC(=O)Nc1ccc(Cl)c(C(F)(F)F)c1)CC(=O)Nc1ccc(Cl)cn1 | > 10 µM | > 10 µM | – |
| C=C(c1ccccc1)[n+]1ccc(C(=O)c2ccccc2)cc1 | > 9.01 µM | – | IC50 (HEPG2TOX_HILL_SLOPE 15.5, HEPG2TOX_R_SQUARED 0.47, PBLUC_HILL_SLOPE 4.11, PBLUC_R_SQUARED 0.394, read-out: LUCIFERASE INFECTION ASSAY - IC50): 5.35 µM |
| Cn1cc(-c2cnc3cnc(-c4ccccc4)cn23)cn1 | 5.95 µM | – | IC50 (PBLUC_HILL_SLOPE 2.38, PBLUC_R_SQUARED 0.622, read-out: LUCIFERASE INFECTION ASSAY - IC50): 2.36 µM |
| Cc1ccccc1-c1cn2c(-c3ccc(Cl)cc3)cnc2cn1 | 5.18 µM | – | IC50 (PBLUC_HILL_SLOPE 7.25, PBLUC_R_SQUARED 0.317, read-out: LUCIFERASE INFECTION ASSAY - IC50): 3.83 µM |
| Cc1ccc2c(Cl)cc(Cl)c(OCN3C(=O)c4ccccc4C3=O)c2n1 | 5.83 µM | – | IC50 (PBLUC_HILL_SLOPE 5.8, PBLUC_R_SQUARED 0.551, read-out: LUCIFERASE INFECTION ASSAY - IC50): 3.99 µM |
| Cc1nc(N2CCN(C(=O)C(C)C)CC2)c2c3c(sc2n1)CC(C)CC3 (stereo unspecified) | > 10 µM | – | IC50 (PBLUC_HILL_SLOPE 12.1, PBLUC_R_SQUARED 0.479, read-out: LUCIFERASE INFECTION ASSAY - IC50): 9.05 µM |
| Cc1cccc(CNc2nc3cnc(-c4ccccc4)cc3n2C)c1 | > 10 µM | > 10 µM | – |
| CCOC(=O)c1sc(N(Cc2ccccc2)C(=O)CCc2cc(OC)c(OC)c(OC)c2)nc1C | 4.11 µM | – | IC50 (PBLUC_HILL_SLOPE 16, PBLUC_R_SQUARED 0.382, read-out: LUCIFERASE INFECTION ASSAY - IC50): 3.58 µM |
| O=C(Oc1ccc(Cl)cc1Sc1cc(Cl)ccc1OC(=O)c1cccs1)c1cccs1 | > 6.5 µM | – | IC50 (FFLUC_HILL_SLOPE 35.2, FFLUC_R_SQUARED 0.259, read-out: LUCIFERASE INFECTION ASSAY - IC50): > 6.5 µM |
| CC(Nc1ccnc2cc(Cl)ccc12)c1ccccc1Cl (stereo unspecified) | 3.6 µM | – | IC50 (PBLUC_HILL_SLOPE 22.7, PBLUC_R_SQUARED 0.0753, read-out: LUCIFERASE INFECTION ASSAY - IC50): 3.27 µM |
| O=C(NNC(=O)c1ccc(CSc2ccc(C(F)(F)F)cn2)o1)c1ccc(Cl)cc1 | > 7.24 µM | > 7.24 µM | – |
| N#Cc1ccc(C(=O)Nc2nc3ccc(SC(F)F)cc3s2)cc1 | 3.39 µM | – | IC50 (HEPG2TOX_HILL_SLOPE 1.69, HEPG2TOX_R_SQUARED 0.978, PBLUC_HILL_SLOPE 16.3, PBLUC_R_SQUARED 0.469, read-out: LUCIFERASE INFECTION ASSAY - IC50): 2.96 µM |
| c1cc(NCCN2CCOCC2)ncc1-c1cn2c(-c3ccc4c(c3)OCO4)cnc2cn1 | > 7.42 µM | > 7.42 µM | – |
| c1ccc2c(NCCNc3ncnc4ccccc34)cccc2c1 | 4.93 µM | – | IC50 (HEPG2TOX_HILL_SLOPE 0.364, HEPG2TOX_R_SQUARED 0.666, PBLUC_HILL_SLOPE 0.695, PBLUC_R_SQUARED 0.76, read-out: LUCIFERASE INFECTION ASSAY - IC50): 0.209 µM |
| CC(C)c1ccc(/C=N/NC(=O)CC#N)cc1 | > 14.4 µM | > 14.4 µM | – |
| COc1ccc(NC(=O)c2cc(-c3ccccc3)n(-c3ccccc3)c2C)cc1 | 4.38 µM | – | IC50 (HEPG2TOX_HILL_SLOPE 0.976, HEPG2TOX_R_SQUARED 0.937, PBLUC_HILL_SLOPE 1.32, PBLUC_R_SQUARED 0.59, read-out: LUCIFERASE INFECTION ASSAY - IC50): 0.834 µM |

Reference: ChEMBL document CHEMBL4483862, “Open-source discovery of chemical leads for next-generation chemoprotective antimalarials” (2018)
